Common to all, as to format: cell-based, human
Test [1] has as its system T84 cell monolayers. The test is described as follows: Immunofluorescence labeling of adherens and tight junctions (E-cadherin, ZO-1). As for the experimental part: FIG. 5: E-cadherin-enhancing drugs prevent cytokine-induced disruption of epithelial adherens junctions. Confluent T84 cell monolayers were pretreated with either vehicle, or ECU (10 μM) for 24 hours. Afterwards, cells were exposed to a combination of TNFα (10 ng/ml) and IFNγ (50 ng/ml) with and without ECU for 48 h. Cells were fixed and structure of adherens was determined by immunolabeling of E-cadherin. Arrows point on disruption of normal E-cadherin labeling in cytokine-exposed, vehicle-treated cells.
FIG. 6: E-cadherin-enhancing drugs prevent cytokine-induced disruption of epithelial tight junctions. Confluent T84 cell monolayers were pretreated with either vehicle, or ECU (10 μM) for 24 hours. Afterwards, cells were exposed to a combination of TNFα (10 ng/ml) and IFNγ (50 ng/ml) with or without ECU for 48 h. Cells were fixed and structure of tight junctions was determined by ZO-1 immunolabeling. Arrows point on disruption of normal ZO-1 labeling in cytokine-exposed, vehicle-treated cells.
In order to visualize structure of epithelial junctions, cultured colonic epithelial cell monolayers were fixed and permeabilized with 100% methanol at −20° C. Fixed samples were blocked for 60 min in HBSS containing 1% bovine serum albumin, followed by a 60-min incubation with primary antibodies against E-cadherin (BD Bioscience) and ZO-1 (Thermo-Fisher). Samples were then washed and incubated with Alexa-Fluor-488-conjugated donkey anti-rabbit and Alexa-Fluor-555—conjugated donkey anti-mouse secondary antibodies for 60 min, rinsed with blocking buffer, and mounted on slides with ProLong Antifade mounting reagent (Thermo-Fisher). Immunolabeled cell monolayers were imaged using a Leica SP8 confocal microscope (Wentzler, Germany). The Alexa Fluor 488 and 555 signals were acquired sequentially in frame-interlace mode to eliminate cross talk between channels. Images were processed using Adobe Photoshop. The images shown are representative of at least three experiments, with multiple images taken per slide. […]

In test [2] the test system is T84 cell monolayers. The test is described as follows: Cytokine-induced apoptosis, immunoblotting of PARP, cleaved PARP, cleaved caspase-3. As to conditions: 10 μM pretreatment 24 h, then IFNγ 50 ng/ml alone or with TNFα 10 ng/ml, 48 h. The protocol:
FIG. 7: E-cadherin-enhancing drugs attenuate cytokine-induced cell death. Confluent T84 cell monolayers were pretreated with either vehicle, or ECU (10 μM) for 24 h. Afterwards, cells were exposed to either IFNγ (50 ng/ml) alone, or its combination with TNFα (10 ng/ml) with and without addition of ECU for additional 48h. Cell were lysed and levels of different apoptotic markers were determined by immunoblotting analysis.
(§1) To prepare total cell lysates, epithelial cell monolayers were scraped and homogenized using a Dounce homogenizer in RIPA buffer (20 mM Tris, 50 mM NaCl, 2 mM EDTA, 2 mM EGTA, 1% sodium deoxycholate, 1% Triton X-100 (TX-100), and 0.1% SDS, pH 7.4) containing protease inhibitor cocktail and phosphatase inhibitor cocktails 2 and 3 (Sigma-Aldrich). The obtained total cell lysates were cleared by centrifugation (20 min at 14,000×g), diluted with 2×SDS sample loading buffer and boiled. SDS-polyacrylamide gel electrophoresis was conducted using a standard protocol with equal amounts of total protein (10 or 20 μg) loaded per each lane. The separated proteins were transferred to nitrocellulose membranes and the membranes were blocked with 5% non-fat milk. […]
On the technique in general: Immunoblotting shows a protein as a band on a membrane.

Test [3] has as its system T84 cell monolayers. The test is described as follows: Immunoblotting of signaling molecules after multiple wounding. As to conditions: 10 μM pretreatment 24 h; lysates 12 and 24 h post-wounding. As for the experimental part: Confluent T84 cell monolayers were pretreated with either vehicle, ECU (10 μM), or ML327 (10 μM), for 24 h, and were subjected to multiple wounding. Total cell lysates were collected at 12 and 24 h post-wounding, and the expression of different signaling molecules was determined by immunoblotting. Representative immunoblots (A) and densitometric quantification of protein band intensities from three independent experiments (B) are shown. Data are presented as a mean ±SE (n=3); *p<0.05; **p<0.01.
as §1

The mark [4] stands for this setting: 10 μM pretreatment 24 h, then TNFα 10 ng/ml + IFNγ 50 ng/ml, 48 h.

Each structure is given as a SMILES string. “Also recorded” adds a separate entry of the source.

Regarding `O=C(NCCCCc1ccncc1)c1cc(-c2ccco2)on1` [ECU], in test [1] (setting [4]), the “Cytokine-induced adherens junction (AJ) disassembly, E-cadherin immunolabeling” value was “dramatic suppression of cytokine-induced disruption of adherens junctions; also recorded: completely prevented cytokine-induced junctional disassembly” and the “Cytokine-induced tight junction (TJ) disassembly, ZO-1 immunolabeling” value is recorded as “inhibition of cytokine-induced tight junction disruption; also recorded: completely prevented cytokine-induced junctional disassembly”. For the same molecule, the “Normal AJ and TJ structure” value in test [1] (10 μM, without cytokines) is listed as “little effect”. Moreover, in test [2], the “Cytokine-induced apoptosis (PARP cleavage, caspase-3 activation)” value is “prevented cytokine-induced PARP cleavage and caspase-3 activation”. Moreover, the “Expression of signaling molecules (pro-migratory signaling)” value in test [3] is reported as “activation of pro-migratory signaling events”.
